Measurements from US8722731B2, “Furanyl compounds and the use thereof” (NovoMedix, LLC, priority 2010, dated 2014).
Read-outs that look alike come from different tables or passages of the source.

How the values were obtained:
Hep-G2 = assay: IC50 cell-based assay, adherent cells, Hep-G2; conditions: Homo sapiens, HepG2, Liver, hepatocellular carcinoma, 72 hours, read-out: IC50 of Compounds in Adherent Cell Types
Description: (§1) In one embodiment, the IC50s of the compounds provided herein were determined in cell-based assays using adherent cells. In one embodiment, the activity of the compounds provided herein were determined in a cell-based assay using the triple negative breast cancer cell line MDA-MB-468. In one embodiment, the adherent cells used in the cell-based assays may be a cell type selected from Table 1. In one embodiment, the cell-based assay may be carried out as provided herein. On day 0, cells were seeded at 20,000 cells per well in 100 µL of media into individual wells of a 96-well tissue culture plate. The next day, compounds were diluted to twice the desired final concentration and added in 100 µL of media for a final volume of 200 μL. Standard solutions for each compound were prepared at 1000× concentration in DMSO. The highest concentration was 30 mM. Serial 1:1 dilutions were made from there for a 6- or 9-point curve (e.g., 30 mM, 15 mM, 7.5 mM, etc). Compounds were then diluted 1:500 in media, and 100 µL of the resulting solution was added to each well for a final dilution of 1:1000. Each concentration of compound was tested in triplicate. Cells were incubated at 37° C. with 5% CO2. After 72 hours, 20 μL of CellTiter 96 Aqueous One Solution Cell Proliferation Assay (Promega) was added to each well. Cells were placed back in the incubator, and the absorbance at 490 nm was read after 2-3 hours. The concentration of compound that decreased the number of metabolically active cells by 50% was determined and reported as the IC50. “Percent Viability” was determined by subtracting the average background value (media only) and expressed as a ratio to the average value obtained from cells treated with only DMSO.

Panc-1 = assay: IC50 cell-based assay, adherent cells, Panc-1; conditions: Homo sapiens, Pancreas, epitheloid carcinoma, 72 hours, read-out: IC50 of Compounds in Adherent Cell Types
Description: as §1

MDA-MB-361 = assay: IC50 cell-based assay, adherent cells, MDA-MB-361; conditions: Homo sapiens, Breast, Brain met Her2-neu + ER +, 72 hours, read-out: IC50 of Compounds in Adherent Cell Types
Description: as §1

U87-MG = assay: IC50 cell-based assay, adherent cells, U87-MG; conditions: Homo sapiens, U-87 MG, Brain, glioblastoma, 72 hours, read-out: IC50 of Compounds in Adherent Cell Types
Description: as §1

Pfeiffer = assay: IC50 cell-based assay, suspension cells, Pfeiffer; conditions: Homo sapiens, Lymphoma, Diffuse large b-cell, read-out: IC50 of Compounds in Suspension Cell Types
Description: as §1
(§2) In one embodiment, the IC50s of the compounds provided herein were determined in cell-based assays using suspension cells. In one embodiment, the activity of the compounds provided herein were determined in a cell-based assay using the JeKo-1 cell line (mantle cell lymphoma) or the Pfeiffer cell line (diffuse large B-cell lymphoma). In one embodiment, the suspension cells used in the cell-based assays may be a cell type selected from Table 2. Assays with suspension cells were similar except that 40,000-60,000 cells were added to each well and compounds were added immediately after cell plating.

1937 = assay: IC50 cell-based assay, adherent cells, 1937; conditions: Breast, triple neg, 72 hours, read-out: IC50 of Compounds in Adherent Cell Types
Description: as §1

Caki-1 = assay: IC50 cell-based assay, adherent cells, Caki-1; conditions: Homo sapiens, Kidney, clear cell carc., skin met, 72 hours, read-out: IC50 of Compounds in Adherent Cell Types
Description: as §1

Kg1a = assay: IC50 cell-based assay, suspension cells, Kg1a; conditions: Homo sapiens, KG-1a, Leukemia, AML, read-out: IC50 of Compounds in Suspension Cell Types
Description: as §1, §2

SupB15 = assay: IC50 cell-based assay, suspension cells, SupB15; conditions: Homo sapiens, SUP-B15, Leukemia, B-ALL (Philadelphia chromosome+), read-out: IC50 of Compounds in Suspension Cell Types
Description: as §1, §2

HT-29 = assay: IC50 cell-based assay, adherent cells, HT-29; conditions: Homo sapiens, Colorectal, adenocarcinoma, 72 hours, read-out: IC50 of Compounds in Adherent Cell Types
Description: as §1

A549 = assay: IC50 cell-based assay, adherent cells, A549; conditions: Homo sapiens, Lung, NSCLC, 72 hours, read-out: IC50 of Compounds in Adherent Cell Types
Description: as §1

Z138, JeKo-1 = assay: IC50 cell-based assay, suspension cells, Z138, JeKo-1; conditions: Lymphoma, Mantle cell, read-out: IC50 of Compounds in Suspension Cell Types
Description: as §1, §2

Nalm-6 = assay: IC50 cell-based assay, suspension cells, Nalm-6; conditions: Homo sapiens, Leukemia, B-ALL, read-out: IC50 of Compounds in Suspension Cell Types
Description: as §1, §2

AsPC-1 = assay: IC50 cell-based assay, adherent cells, AsPC-1; conditions: Homo sapiens, ASPC1, Pancreas, carcinoma, 72 hours, read-out: IC50 of Compounds in Adherent Cell Types
Description: as §1

A431 = assay: IC50 cell-based assay, adherent cells, A431; conditions: Homo sapiens, A-431, Skin, epidermoid carcinoma, 72 hours, read-out: IC50 of Compounds in Adherent Cell Types
Description: as §1

FaDu = assay: IC50 cell-based assay, adherent cells, FaDu; conditions: Homo sapiens, Pharynx, squamous cell, 72 hours, read-out: IC50 of Compounds in Adherent Cell Types
Description: as §1

SK-MEL-28 = assay: IC50 cell-based assay, adherent cells, SK-MEL-28; conditions: Homo sapiens, Melanoma, 72 hours, read-out: IC50 of Compounds in Adherent Cell Types
Description: as §1

H-460 = assay: IC50 cell-based assay, adherent cells, H-460; conditions: Homo sapiens, NCI-H460, Lung, large cell carcinoma, 72 hours, read-out: IC50 of Compounds in Adherent Cell Types
Description: as §1

MCF-7 = assay: IC50 cell-based assay, adherent cells, MCF-7; conditions: Homo sapiens, MCF7, Breast, ER+, 72 hours, read-out: IC50 of Compounds in Adherent Cell Types
Description: as §1

[1] = tested on: triple negative breast cancer cell line MDA-MB-468; assay: IC50 cell-based assay, adherent cells, MDA-MB-468; conditions: Homo sapiens
Description: as §1
The IC50s of the compounds provided herein were determined in cell-based assay using triple negative breast cancer cell line MDA-MB-468.

MDA-MB-231 = assay: IC50 cell-based assay, adherent cells, MDA-MB-231; conditions: Homo sapiens, Breast, triple neg, 72 hours, read-out: IC50 of Compounds in Adherent Cell Types
Description: as §1

OVCAR-3 = assay: IC50 cell-based assay, adherent cells, OVCAR-3; conditions: Homo sapiens, Ovarian, adenocarcinoma, 72 hours, read-out: IC50 of Compounds in Adherent Cell Types
Description: as §1

MHH-CALL-4 = assay: IC50 cell-based assay, suspension cells, MHH-CALL-4; conditions: MHHCALL4, Leukemia, B-ALL (CRLF2 Hi), read-out: IC50 of Compounds in Suspension Cell Types
Description: as §1, §2

SKBR-3 = assay: IC50 cell-based assay, adherent cells, SKBR-3; conditions: Homo sapiens, SK-BR-3, Breast, ER−, 72 hours, read-out: IC50 of Compounds in Adherent Cell Types
Description: as §1

HL-60 = assay: IC50 cell-based assay, suspension cells, HL-60; conditions: Homo sapiens, Leukemia, AML, read-out: IC50 of Compounds in Suspension Cell Types
Description: as §1, §2

Nalm-6-VR = assay: IC50 cell-based assay, suspension cells, Nalm-6-VR; conditions: Leukemia, B-ALL, Vincristine resistant, read-out: IC50 of Compounds in Suspension Cell Types
Description: as §1, §2

RT-4 = assay: IC50 cell-based assay, adherent cells, RT-4; conditions: Homo sapiens, Bladder, papilloma, 72 hours, read-out: IC50 of Compounds in Adherent Cell Types
Description: as §1

[2] = MDA-MB-468, Breast, triple neg, 72 hours, Table 1, read-out: IC50 of Compounds in Adherent Cell Types
[3] = MDA-MB-468 cells, Table 3, read-out: IC50 of Compounds in MDA-MB-468 Cells

Measured: IC50

O=C(Nc1cc(C(F)(F)F)cc(C(F)(F)F)c1)c1cc(-c2ccc(Br)cc2)oc1C(F)(F)F [Compound 3, 5-(4-Bromophenyl)-N-(3,5-bistrifluoromethylphenyl)-2-trifluoromethylfuran-3-carboxamide]
10 to 20 µM: HT-29 | H-460
< 5 µM: MDA-MB-361 | Pfeiffer | 1937 | Kg1a | SupB15 | A549 | Z138, JeKo-1 | FaDu | [1]; [2] | OVCAR-3 | MHH-CALL-4 | SKBR-3 | HL-60 | Nalm-6-VR
5 to 10 µM: Hep-G2 | Panc-1 | U87-MG | Caki-1 | Nalm-6 | AsPC-1 | A431 | SK-MEL-28 | MCF-7 | MDA-MB-231
1.5 µM: [1]; [3]
> 20 µM: RT-4

Cc1oc(-c2ccccc2)cc1C(=O)Nc1cc(C(F)(F)F)cc(C(F)(F)F)c1 [Compound 4, 2-Methyl-5-phenyl-furan-3-carboxylic acid (3,5-bis-trifluoromethyl-phenyl)-amide]
> 20 µM: Panc-1 | MDA-MB-361 | Pfeiffer | 1937 | Kg1a | SupB15 | Z138, JeKo-1 | Nalm-6 | MCF-7 | MDA-MB-231 | MHH-CALL-4 | SKBR-3 | HL-60
> 30 µM: [1]; [3]
10 to 20 µM: [1]; [2]

O=C(Nc1cc(F)cc(C(F)(F)F)c1)c1cc(-c2ccc(Cl)cc2)oc1C(F)(F)F [Compound 5, 5-(4-Chloro-phenyl)-2-trifluoromethyl-furan-3-carboxylic acid (3-fluoro-5-trifluoromethyl-phenyl)-amide]
4 µM: [1]; [3]
10 to 20 µM: Hep-G2 | MDA-MB-361 | U87-MG
5 to 10 µM: Pfeiffer | 1937 | Caki-1 | Kg1a | A549 | AsPC-1 | FaDu | SK-MEL-28 | MDA-MB-231 | OVCAR-3 | MHH-CALL-4
< 5 µM: Panc-1 | SupB15 | Z138, JeKo-1 | Nalm-6 | MCF-7 | [1]; [2] | SKBR-3 | HL-60 | Nalm-6-VR
> 20 µM: HT-29 | A431 | H-460 | RT-4

O=C(Nc1cc(F)cc(C(F)(F)F)c1)c1cc(-c2ccc(Br)cc2)oc1C(F)(F)F [Compound 7, 5-(4-Bromo-phenyl)-2-trifluoromethyl-furan-3-carboxylic acid (3-fluoro-5-trifluoromethyl-phenyl)-amide]
5 to 10 µM: 1937 | SupB15 | Z138, JeKo-1 | Nalm-6 | FaDu | MCF-7 | OVCAR-3 | SKBR-3 | HL-60
5 µM: [1]; [3]
10 to 20 µM: Hep-G2 | Pfeiffer | Kg1a | AsPC-1 | A431 | SK-MEL-28 | MDA-MB-231 | MHH-CALL-4 | Nalm-6-VR
> 20 µM: Panc-1 | MDA-MB-361 | U87-MG | HT-29 | A549 | H-460 | RT-4
< 5 µM: [1]; [2]

COc1ccc(-c2cc(C(=O)Nc3cc(C(F)(F)F)cc(C(F)(F)F)c3)c(C(F)(F)F)o2)cc1 [Compound 8, 5-(4-Methoxy-phenyl)-2-trifluoromethyl-furan-3-carboxylic acid (3,5-bis-trifluoromethyl-phenyl)-amide]
< 5 µM: Nalm-6 | [1]; [2]
2 µM: [1]; [3]
